Reference: patent publication US12083093B2, “Composition for preventing or treating cellular senescence-related diseases comprising salinomycin as effective component” (RESEARCH COOPERATION FOUNDATION OF YEUNGNAM UNIVERSITY, priority 2018, dated 2024)

Tests used:
[1] = test system: premature senescent human fibroblasts induced by doxorubicin (HDF); test: SAβG activity staining, doxorubicin-induced premature senescent human fibroblasts; assay type: cell-based; conditions: 100 nM, 4 days; compared to DMSO-treated group; FIG. 1A, 1B
Procedure: (§1) Each cell was treated in a serum-free culture solution containing doxorubicin (0.5 μM) for 4 hours. After washing the cells with a serum-free culture solution, the cells were cultured for 4 days in a culture solution containing 10% FBS, and then cellular aging was confirmed by measuring the level of senescence by staining with senescence-associated beta galactosidase.
(§2) After each sample was dissolved in DMSO, young cells, replicative senescent cells and senescent cells in which premature aging was induced by treating with doxorubicin were treated with 100 nM salinomycin, 100 nM rapamycin, 100 nM ABT263. After incubation for 4 days in a 37° C., 5% CO2 incubator, the degree of cell survival was confirmed by CCK-8 analysis, the degree of cellular aging was confirmed by senescence-associated β-galactosidase (SAβG) staining, p53 and p16 protein expression analysis.
(§3) The cells were washed with 1× phosphate buffer solution, and fixed with a phosphate buffer solution containing 3.7% (v/v) paraformaldehyde. After adding 1 mg/ml 5-bromo-4-chloro-3-indolyl-β-D-galactoside, 40 mM citric acid-sodium phosphate (pH 6.0), 5 mM potassium ferricyanide, 5 mM potassium ferrocyanide, 150 mM NaCl, and 2 mM MgCl2 solution, it was reacted at 37° C. for 18 hours. It was stained with eosin as a control stain and cells stained blue in the cytoplasm were identified using an optical microscope. […]

[2] = test system: premature senescent vascular endothelial cells (HUVEC) by doxorubicin; test: SAβG activity staining, doxorubicin-induced premature senescent HUVEC; assay type: cell-based, human; conditions: 100 nM, 4 days; compared to DMSO-treated group; p<0.01; FIG. 3A, 3B
Procedure: as §1, §2, §3

[3] = test system: young fibroblasts (HDF); test: CCK-8 cell survival, young human fibroblasts; assay type: cell-based; conditions: young cells, increasing concentration of salinomycin; FIG. 2A, 2D
Procedure: as §2
(§4) Young cells (1×10^3 cells/well) or senescent cells (2×10^3 cells/well) were dispensed into a 96-well plate, and cultured overnight in a 37° C., 5% CO2 incubator. Salinomycin, ABT263 and rapamycin were treated at each concentration, and then incubated for 4 days in a 37° C., 5% CO2 incubator. 10 μl of CCK-8 reagent (Dojindo Molecular Technologies Inc., Kumamoto, Japan) was added to each well, and incubated for 2 hours in an incubator. Then, the absorbance was measured at 450 nm using a Microplate reader.
The degree of cell survival was expressed as a relative value for the absorbance of the control group treated with only DMSO as 100%.

[4] = test system: premature senescent human fibroblasts induced by doxorubicin (HDF); test: CCK-8 cell survival, doxorubicin-induced premature senescent human fibroblasts; assay type: cell-based; conditions: 100 nM, 4 days; compared to DMSO-treated group; p<0.01; FIG. 1C
Procedure: as §1, §2
as §4, with “10 μl of CCK-8 reagent (Dojindo Molecular Technologies Inc., Kumamoto, Japan) was added to each well, and incubated for 2 hours in an incubator.” left out
The degree of cell survival was expressed as a relative value for the absorbance of the control group treated with only DMSO as 100%. […]

[5] = test system: premature senescent retinal pigmented epithelial cells (ARPE) by doxorubicin; assay type: cell-based, human
Procedure: as §1
Cytotoxicity against young and senescent cells was investigated with a lactate dehydrogenase (LDH) activity kit (Dojindo Molecular Technologies Inc.). Young cells (1×10^3 cells/100 μl/well) or senescent cells (2×10^3 cells/100 μl/well) were dispensed into a 96-well plate, and then cultured overnight in a 37° C., 5% CO2 incubator.
Salinomycin, ABT263 and rapamycin were treated at each concentration, and then incubated for 4 days in a 37° C., 5% CO2 incubator. After transferring the cell culture solution to a 1.5 ml tube, it was centrifuged at 4° C. and 12,000 rpm. 100 μl of the supernatant was dispensed into a 96-well plate, and 100 μl of the LDH measurement solution was added to each well, followed by reaction in a CO2 incubator for 30 minutes. 50 μl of the LDH reaction stop solution was added, and absorbance was measured at 490 nm using a microplate reader. The level of LDH activity was expressed as a relative value based on the absorbance of the control group treated with only DMSO.

CC[C@@H](C(=O)[C@@H](C)[C@@H](O)[C@H](C)[C@@H]1O[C@@H]([C@@H](CC)C(=O)O)CC[C@@H]1C)[C@H]1O[C@]2(C=C[C@@H](O)[C@]3(CC[C@@](C)([C@H]4CC[C@](O)(CC)[C@H](C)O4)O3)O2)[C@H](C)C[C@@H]1C [salinomycin]
SAβG activity [1]: significantly reduced
SAβG activity staining [2]: significantly decreased
cell survival (CCK-8) [3]: no change
cell survival (CCK-8) [4]: decreased significantly
cytotoxicity by LDH activity [5]: significantly increased
